Measured values reported in patent publication US10406094B2, “Composition for fast dry of hair” (The Procter & Gamble Company, priority 2016, dated 2019).

Assay: DVS measurement: % reduction in amount of water absorbed by treated hair
Parameters: % reduction in water absorbed: concentration or dose not given beside the values
Details: Molecular Class II
Method: The leave-on treatment compositions are prepared by adding the Moisture Control Materials and perfume, if needed, into a 50:50 ethanol/water carrier and stirred until complete dissolution. The solution pH is adjusted using sodium hydroxide (50% w/w) to a final pH of 4.0-4.2.
The hair is allowed to air dry and then analyzed using the DVS method described above. The experiment is repeated for a dosage of 0.50 g of solution per g of hair. The hair in this case is also assessed by expert graders, as described below, in addition to the DVS analysis.
An amount of 25-30 mg of hair with length of approximately 1 cm is weighed and hold for equilibration at 0% RH for 16 hours. After the 16-hour period, the RH is increased to 10% and maintained at this level for 6 hours. Then, the RH is increased by 10% after every 6 hours interval until it reaches 90% RH. The % reduction in amount of water absorbed is calculated as follows:
A=Amount of water absorbed by the hair treated with composition containing the Moisture Control Material
B=Amount of water absorbed by the hair treated with control composition (only carrier) containing no Moisture Control Material % reduction in amount of water absorbed=[(B−A)×100]/B

| Compound | % reduction in water absorbed |
| --- | --- |
| C/C(=C\CO)CCC[C@H](C)CCC[C@H](C)CCCC(C)C [Phytol] | 14% |
| CCCCCCCC/C=C\CCCCCCCC(=O)OCC(O)CO (stereo not drawn) [Glyceryl monooleate] | 5% |
| CCCCCC[C@@H](O)C/C=C\CCCCCCCC(=O)O [Ricinoleic acid] | 8.8% |
| CCCCCCCCC(CO)CCCCCC (stereo not drawn) [2-Hexyl-1-decanol] | 11% |
| CCOC(=O)c1cc(O)c(O)c(O)c1 [Ethyl gallate] | 17% |
| Sorbitan caprylate | 11% |
| CCCCCCCCCCCCCC(=O)OC(C)C [Isopropyl myristate] | 12% |
| CCCCCCCC/C=C\CCCCCCCC(=O)O [Oleic Acid] | 14% |
| CCCCC/C=C\C/C=C\CCCCCCCC(=O)OCC [Ethyl linoleate] | 8% |
| CC(C)CCCCCCCCCCCCCCCOC(=O)CCCCCCCCCCCCCCC(C)C [Isostearyl isostearate] | 11% |
| CC(C)C(=O)O [Isobutyric acid] | 5% |
| O=C(OCCO)c1ccccc1O [2-Hydroxyethyl salicylate] | 10% |

Same assay, conditions: material at 1% wt/vol

| Compound | % Reduction in amount of water absorbed |
| --- | --- |
| O=C(O)c1cc(Cl)c(O)c(Cl)c1 [3,5-Dichloro-4-hydroxybenzoic acid] | 15% |
| O=C(O)c1cc(O)c(C(=O)O)cc1O [2,5 Dihydroxyterephthalic acid] | 18% |
| Nc1ccc(O)cc1 [4-Aminophenol] | 10% |
| O=C(O)c1ccc(O)c(O)c1 [3,4-Dihydroxybenzoic acid] | 20% |
| O=C(O)c1c(O)cccc1O [2,6-Dihydroxybenzoic acid] | 35% |
| Nc1cccc(O)c1 [3-Aminophenol] | 14% |
| Cl.Nc1cccc(O)c1 [3-Hydroxyanilinium chloride] | 16% |
| O=C(O)/C=C/c1ccc(O)cc1 [p-Coumaric acid] | 8.8% |
| O=C(O)c1cccc(O)c1 [3-Hydroxybenzoic Acid] | 20% |
| O=C(O)c1cc(Cl)ccc1O [5-Chlorosalicylic acid] | 28% |
| O=C(O)c1cc(O)ccc1O [2,5-Dihydroxybenzoic acid] | 27% |
| Nc1ccc(C(=O)O)cc1 [4-Aminobenzoic acid] | 12% |
| O=C(O)c1ccc(O)c(Cl)c1 [3-Chloro-4-hydroxybenzoic acid] | 11% |
| Nc1ccccc1O [2-Aminophenol] | 14% |
| Nc1cccc(C(=O)O)c1 [3-Aminobenzoic acid] | 12% |
| O=C(O)c1cc(O)c(O)c(O)c1 [Gallic acid] | 15% |
| O=C(O)CNc1ccc(O)cc1 [N-4-Hydroxyphenylglycine] | 15% |
| COc1cc(/C=C/C(=O)O)ccc1O [Trans-Ferulic Acid] | 6% |
| O=C(O)c1cc(O)cc(O)c1 [3,5-Dihydroxybenzoic acid] | 15% |
| O=S(=O)(O)c1ccc(O)cc1 [4-Hydroxybenzenesulphonic acid] | 26% |
| O=C(O)c1ccc(O)cc1O [2,4-Dihydroxybenzoic acid] | 30% |
